From PubChem BioAssay AID1963840 (Molecular Pharmacology Branch, DTP, NCI, 2024)

System: 695427-040-R-J1-PDC complex spheroid viability
Assay: Anticancer human tumor 695427-040-R-J1-PDC patient-derived colon adenocarcinoma cell line growth inhibition [POLQ]
Settings: for IC50: curve of first compound; for viability, T/C: stronger effect = lower value; active = viability on the fitted dose curve at most 10% of control; inactive = the rest
Outline: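 Patient-derived tumour cells were co-cultured with HUVEC and mesenchymal stem cells as multicellular spheroids at 37 °C. They were treated with POLQ inhibitors (novobiocin, ART-558, RP6685) alone or combined with other agents. Top concentrations were at or near clinical Cmax (otherwise 10 microM; SN-38 at 1 microM), decreasing in half-log steps.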

[1] = second compound 0.0316 µM, first compound 0.00316 µM
[2] = second compound 0.0316 µM, first compound 0.01 µM
[3] = second compound 0.0316 µM, first compound 0.0316 µM
[4] = second compound 0.0316 µM, first compound 0.1 µM
[5] = second compound 0.1 µM, first compound 0.00316 µM
[6] = second compound 0.1 µM, first compound 0.01 µM
[7] = second compound 0.1 µM, first compound 0.0316 µM
[8] = second compound 0.1 µM, first compound 0.1 µM
[9] = second compound 0.316 µM, first compound 0.00316 µM
[10] = second compound 0.316 µM, first compound 0.01 µM
[11] = second compound 0.316 µM, first compound 0.0316 µM
[12] = second compound 0.316 µM, first compound 0.1 µM
[13] = second compound 1 µM, first compound 0.00316 µM
[14] = second compound 1 µM, first compound 0.01 µM
[15] = second compound 1 µM, first compound 0.0316 µM
[16] = second compound 1 µM, first compound 0.1 µM
[17] = second compound 3.16 µM, first compound 0.00316 µM
[18] = second compound 3.16 µM, first compound 0.01 µM
[19] = second compound 3.16 µM, first compound 0.0316 µM
[20] = second compound 3.16 µM, first compound 0.1 µM
[21] = second compound 10 µM, first compound 0.00316 µM
[22] = second compound 10 µM, first compound 0.01 µM
[23] = second compound 10 µM, first compound 0.0316 µM
[24] = second compound 10 µM, first compound 0.1 µM
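Also: spheroids exposed to compounds for seven days.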
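For viability, T/C in this document: 100% = DMSO vehicle control viability.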

CC[C@@]1(O)C(=O)OCc2c1cc1n(c2=O)Cc2cc3c(CN(C)C)c(O)ccc3nc2-1 + Cc1cccc(N(C)C(=O)C2C(O)CCN2c2nc(C)cc(C(F)(F)F)c2C#N)c1
inactive: viability, T/C (second compound 0.0316 µM, first compound 0.000316 µM) 110% | viability, T/C (second compound 0.0316 µM, first compound 0.001 µM) 98.7% | viability, T/C [1] 104% | viability, T/C [2] 94.5% | viability, T/C [3] 99.4% | viability, T/C [4] 88.5% | viability, T/C (second compound 0.1 µM, first compound 0.000316 µM) 109% | viability, T/C (second compound 0.1 µM, first compound 0.001 µM) 98.5% | viability, T/C [5] 94.7% | viability, T/C [6] 104% | viability, T/C [7] 97.5% | viability, T/C [8] 88.7% | viability, T/C (second compound 0.316 µM, first compound 0.000316 µM) 99.1% | viability, T/C (second compound 0.316 µM, first compound 0.001 µM) 95.9% | viability, T/C [9] 98.2% | viability, T/C [10] 91.5% | viability, T/C [11] 101% | viability, T/C [12] 87.3% | viability, T/C (second compound 1 µM, first compound 0.000316 µM) 98.2% | viability, T/C (second compound 1 µM, first compound 0.001 µM) 93.4% | viability, T/C [13] 97.5% | viability, T/C [14] 97.1% | viability, T/C [15] 93.7% | viability, T/C [16] 86.9% | viability, T/C (second compound 3.16 µM, first compound 0.000316 µM) 92.4% | viability, T/C (second compound 3.16 µM, first compound 0.001 µM) 98.5% | viability, T/C [17] 91.7% | viability, T/C [18] 98.4% | viability, T/C [19] 101% | viability, T/C [20] 81.7% | viability, T/C (second compound 10 µM, first compound 0.000316 µM) 85.6% | viability, T/C (second compound 10 µM, first compound 0.001 µM) 89.4% | viability, T/C [21] 104% | viability, T/C [22] 90% | viability, T/C [23] 87.5% | viability, T/C [24] 77.7%
> 100 nM: IC50 (second compound 0.0316 µM) | IC50 (second compound 0.1 µM) | IC50 (second compound 0.316 µM) | IC50 (second compound 1 µM) | IC50 (second compound 3.16 µM) | IC50 (second compound 10 µM)

CCc1c2c(nc3ccc(O)cc13)-c1cc3c(c(=O)n1C2)COC(=O)[C@]3(O)CC + Cc1cccc(N(C)C(=O)C2C(O)CCN2c2nc(C)cc(C(F)(F)F)c2C#N)c1
572 nM: IC50 (second compound 10 µM)
inactive: viability, T/C [1] 101% | viability, T/C [2] 90.1% | viability, T/C [3] 83% | viability, T/C [4] 81.7% | viability, T/C (second compound 0.0316 µM, first compound 0.316 µM) 66.1% | viability, T/C (second compound 0.0316 µM, first compound 1 µM) 51.4% | viability, T/C [5] 99.6% | viability, T/C [6] 98.9% | viability, T/C [7] 80.5% | viability, T/C [8] 76.3% | viability, T/C (second compound 0.1 µM, first compound 0.316 µM) 69.3% | viability, T/C (second compound 0.1 µM, first compound 1 µM) 52.8% | viability, T/C [9] 93.2% | viability, T/C [10] 92.8% | viability, T/C [11] 90.7% | viability, T/C [12] 75.8% | viability, T/C (second compound 0.316 µM, first compound 0.316 µM) 67.4% | viability, T/C (second compound 0.316 µM, first compound 1 µM) 49.7% | viability, T/C [13] 96.2% | viability, T/C [14] 94.5% | viability, T/C [15] 85.2% | viability, T/C [16] 77.3% | viability, T/C (second compound 1 µM, first compound 0.316 µM) 67.9% | viability, T/C (second compound 1 µM, first compound 1 µM) 51.2% | viability, T/C [17] 89.4% | viability, T/C [18] 84.9% | viability, T/C [19] 82.2% | viability, T/C [20] 82.8% | viability, T/C (second compound 3.16 µM, first compound 0.316 µM) 66.3% | viability, T/C (second compound 3.16 µM, first compound 1 µM) 48.6% | viability, T/C [21] 84.2% | viability, T/C [22] 80.7% | viability, T/C [23] 78.9% | viability, T/C [24] 70.5% | viability, T/C (second compound 10 µM, first compound 0.316 µM) 58.5% | viability, T/C (second compound 10 µM, first compound 1 µM) 41.7%
> 1000 nM: IC50 (second compound 0.0316 µM) | IC50 (second compound 0.1 µM) | IC50 (second compound 0.316 µM) | IC50 (second compound 1 µM)
912 nM: IC50 (second compound 3.16 µM)
